US20130244999A1, “Substituted Heterocyclic Compounds” (Incyte Corporation, priority 2008, published 2013)
pIC50: −log10 of the molar value.

target: T1, histamine H4 receptor (Homo sapiens, UniProt Q9H3N8); assay: Inhibition of histamine H4 receptor (Table A1; H4 membrane binding assay); details: not given
T1 construct: expressed in transfected cells; host or cells: HEK293SFM cells (membrane preparation)
Experimental: Recombinant HEK293SFM cells expressing human H1, H2, H3, H4 or mouse H4 were harvested (Packard Filtermate Harvester) in ice-cold Tris-HCl, (50 mM, pH 7.5, Sigma) with protease inhibitors (Roche) and homogenized with a Polytron homogenizer. The homogenate was centrifuged for 5 minutes at 1000 g to remove nuclei and unbroken cells. The supernatant was centrifuged at 50000 g for 30 minutes, and the resulting pellet was re-suspended in ice-cold Tris-HCl (50 mM, pH 7.5). […] Nonspecific binding was determined by inclusion of 1000× unlabeled ligands. The bound radioactivity was separated by filtration through polyethyleneimine-treated GF/B filters (Perkin Elmer). The filters were washed eight times with ice-cold Tris-HCl (50 mM, pH 7.5), and radioactivity retained on the filters was measured by liquid scintillation counting. The binding data were evaluated with Prism. […]

Row | inhibition at 1 µM [%] | Compound
1 | 78 | CC1Cc2ccc(-c3ccc(C(=O)N(C)C)nc3)cc2CN1c1cc(N2CCN(C)CC2)nc(N)n1 (single isomer, unassigned) [Example 50 B, 5-(2-(2-amino-6-(4-methylpiperazin-1-yl)pyrimidin-4-yl)-3-methyl-1,2,3,4-tetrahydroisoquinolin-7-yl)-N,N-dimetitylpicolinamide]
2 | 65 | CC1Cc2ccc(-c3ccc(C(=O)N4CCCC4)nc3)cc2CN1c1cc(N2CCN(C)CC2)nc(N)n1 (single isomer, unassigned) [Example 55B, 4-(4-methylpiperazin-1-yl)-6-[3-methyl-7-[6-(pyrrolidin-1-ylcarbonyl)pyridin-3-yl]-3,4-dihydroisoquinolin-2(1H)-yl]pyrimidin-2-amine]

same assay, conditions: histamine H4 receptor; "> a" = exceeds experiment limit

Row | Compound | pIC50
3 | CC1Cc2ccc(-c3ccc(C(=O)N4CC[C@@H](O)C4)nc3)cc2CN1c1cc(N2CCN(C)CC2)nc(N)n1 (single isomer, unassigned) [Example 56A] | 7.07
4 | CC1Cc2ccc(-c3ccc(C(=O)N4CC[C@@H](O)C4)nc3)cc2CN1c1cc(N2CCN(C)CC2)nc(N)n1 (single isomer, unassigned) [Example 56B] | 6.76
5 | CC1Cc2ccc(-c3ccnc(C(=O)N4CCC4)c3)cc2CN1c1cc(N2CCN(C)CC2)nc(N)n1 (single isomer, unassigned) [Example 62A, 4-[7-[2-(azetidin-1-ylcarbonyl)pyridin-4-yl]-3-methyl-3,4-dihydroisoquinolin-2 (1H)-yl]-6-(4-methylpiperazin-1-yl)pyrimidin-2-amine] | 7.34
6 | CC1Cc2ccc(-c3ccnc(C(=O)N4CCC4)c3)cc2CN1c1cc(N2CCN(C)CC2)nc(N)n1 (single isomer, unassigned) [Example 62B, 4-[7-[2-(azetidin-1-ylcarbonyl)pyridin-4-yl]-3-methyl-3,4-dihydroisoquinolin-2(1H)-yl]-6-(4-methylpiperazin-1-yl)pyrimidin-2-amine] | 7.31
7 | CC1Cc2ccc(-c3ccnc(C(=O)N4CC(C#N)C4)c3)cc2CN1c1cc(N2CCN(C)CC2)nc(N)n1 (single isomer, unassigned) [Example 63A, 1-[(4-{2-[2-amino-6-(4-methylpiperazin-1-yl)pyrimidin-4-yl]-3-methyl-1,2,3,4-tetrahydroisoquinolin-7-yl}pyridin-2-yl)carbonyl]azetidine-3-carbonitrile] | 7.36
8 | CC1Cc2ccc(-c3ccnc(C(=O)N4CC(C#N)C4)c3)cc2CN1c1cc(N2CCN(C)CC2)nc(N)n1 (single isomer, unassigned) [Example 63B, 1-[(4-{2-[2-amino-6-(4-methylpiperazin-1-yl)pyrimidin-4-yl]-3-methyl-1,2,3,4-tetrahydroisoquinolin-7-yl}pyridin-2-yl)carbonyl]azetidine-3-carbonitrile] | 7.33
9 | CC1Cc2ccc(-c3ccnc(C(=O)N4CCCC4)c3)cc2CN1c1cc(N2CCN(C)CC2)nc(N)n1 (single isomer, unassigned) [Example 64A, 4-(4-methylpiperazin-1-yl)-6-[3-methyl-7-[2-(pyrrolidin-1-ylcarbonyl)pyridin-4-yl]-3,4-dihydroisoquinolin-2(1H)-yl]pyrimidin-2-amine] | 6.94
10 | CC1Cc2ccc(-c3ccnc(C(=O)N4CCCC4)c3)cc2CN1c1cc(N2CCN(C)CC2)nc(N)n1 (single isomer, unassigned) [Example 64B, 4-(4-methylpiperazin-1-yl)-6-[3-methyl-7-[2-(pyrrolidin-1-ylcarbonyl)pyridin-4-yl]-3,4-dihydroisoquinolin-2(1H)-yl]pyrimidin-2-amine] | 7.07
11 | CC1Cc2ccc(-c3ccnc(C(=O)N4CC[C@H](O)C4)c3)cc2CN1c1cc(N2CCN(C)CC2)nc(N)n1 (single isomer, unassigned) [Example 65A] | 6.97
12 | CC1Cc2ccc(-c3ccnc(C(=O)N4CC[C@H](O)C4)c3)cc2CN1c1cc(N2CCN(C)CC2)nc(N)n1 (single isomer, unassigned) [Example 65B] | 7.10
13 | CC1Cc2ccc(-c3ccnc(C(=O)N4CC[C@H](F)C4)c3)cc2CN1c1cc(N2CCN(C)CC2)nc(N)n1 (single isomer, unassigned) [Example 66A] | 7.19
14 | CC1Cc2ccc(-c3ccnc(C(=O)N4CC[C@H](F)C4)c3)cc2CN1c1cc(N2CCN(C)CC2)nc(N)n1 (single isomer, unassigned) [Example 66B] | 7.24
15 | CC1Cc2ccc(-c3ccnc(C(=O)N4CCC(N(C)C)C4)c3)cc2CN1c1cc(N2CCN(C)CC2)nc(N)n1 (single isomer, unassigned) [Example 67A, 4-[7-(2-{[3-(dimethylamino)pyrrolidin-1-yl]carbonyl}pyridin-4-yl)-3-methyl-3,4-dihydroisoquinolin-2(1H)-yl]-6-(4-methylpiperazin-1-yl)pyrimidin-2-amine] | 7.25

Second part, the molecule after the results:

Row | pIC50 | Compound
16 | 7.35 | CNC(=O)c1ccc(-c2ccc3c(c2)CN(c2cc(N4CCN(C)CC4)nc(N)n2)C(C)C3)cn1 (single isomer, unassigned) [Example 49A]
17 | 7.42 | CNC(=O)c1ccc(-c2ccc3c(c2)CN(c2cc(N4CCN(C)CC4)nc(N)n2)C(C)C3)cn1 (single isomer, unassigned) [Example 49B, 5-{2-[2-amino-6-(4-methylpiperazin-1-yl)pyrimidin-4-yl]-3-methyl-1,2,3,4-tetrahydroisoquinolin-7-yl}-N-methylpyridine-2-carboxamide]
18 | 7.05 | CC1Cc2ccc(-c3ccc(C(=O)N(C)C)nc3)cc2CN1c1cc(N2CCN(C)CC2)nc(N)n1 (single isomer, unassigned) [Example 50A, 5-(2-(2-amino-6-(4-methylpiperazin-1-yl)pyrimidin-4-yl)-3-methyl-1,2,3,4-tetrahydroisoquinolin-7-yl)-N,N-dimethylpicolinamide]
19 | 7.12 | CC1Cc2ccc(-c3ccc(C(=O)N[C@H](C)CO)nc3)cc2CN1c1cc(N2CCN(C)CC2)nc(N)n1 (single isomer, unassigned) [Example 51A]
20 | 7.20 | CC1Cc2ccc(-c3ccc(C(=O)N[C@H](C)CO)nc3)cc2CN1c1cc(N2CCN(C)CC2)nc(N)n1 (single isomer, unassigned) [Example 51B]
21 | 7.34 | CC1Cc2ccc(-c3ccc(C(=O)N(C)CCN(C)C)nc3)cc2CN1c1cc(N2CCN(C)CC2)nc(N)n1 (single isomer, unassigned) [Example 52A, 5-{2-[2-amino-6-(4-methylpiperazin-1-yl)pyrimidin-4-yl]-3-methyl-1,2,3,4-tetrahydroisoquinolin-7-yl}-N-[2-(dimethylamino)ethyl]-N-methylpyridine-2-carboxoynide]
22 | 6.70 | CC1Cc2ccc(-c3ccc(C(=O)N4CCC4)nc3)cc2CN1c1cc(N2CCN(C)CC2)nc(N)n1 (single isomer, unassigned) [Example 53A, 4-[7-[6-(azetidin-1-ylcarbonyl)pyridin-3-yl]-3-methyl-3,4-dihydroLsoquinolin-2(1H)-yl]-6-(4-methylpiperazin-1-yl)pyrimidin-2-amine]
23 | 6.75 | CC1Cc2ccc(-c3ccc(C(=O)N4CCC4)nc3)cc2CN1c1cc(N2CCN(C)CC2)nc(N)n1 (single isomer, unassigned) [Example 53B, 4-[7-[6-(azetidin-1-ylcarbonyl)pyridin-3-yl]-3-methyl-3,4-dihydroisoquinolin-2(1H)-yl]-6-(4-methylpiperazin-1-yl)pyrimidin-2-amine]
24 | 7.00 | CC1Cc2ccc(-c3ccc(C(=O)N4CC(C#N)C4)nc3)cc2CN1c1cc(N2CCN(C)CC2)nc(N)n1 (single isomer, unassigned) [Example 54A, 1-[(5-{2-[2-amino-6-(4-methylpiperazin-1-yl)pyrimidin-4-yl]-3-methyl-1,2,3,4-tetrahydroisoquinolin-7-yl}pyridin-2-yl)carbonyl]azetidine-3-carbonitrile]
25 | 7.32 | CC1Cc2ccc(-c3ccc(C(=O)N4CC(C#N)C4)nc3)cc2CN1c1cc(N2CCN(C)CC2)nc(N)n1 (single isomer, unassigned) [Example 54B, 1-[(5-{2-[2-amino-6-(4-methylpiperazin-1-yl)pyrimidin-4-yl]-3-methyl-1,2,3,4-tetrahydroisoquinolin-7-yl}pyridin-2-yl)carbonyl]azetidine-3-carbonitrile]
26 | 7.02 | CC1Cc2ccc(-c3ccc(C(=O)N4CCCC4)nc3)cc2CN1c1cc(N2CCN(C)CC2)nc(N)n1 (single isomer, unassigned) [Example 55A]
27 | 6.89 | CC1Cc2ccc(-c3ccc(C(=O)N4CC(O)C4)nc3)cc2CN1c1cc(N2CCN(C)CC2)nc(N)n1 (single isomer, unassigned) [Example 60, 1-[(5-{2-[2-Amino-6-(4-methylpiperazin-1-yl)pyrimidin-4-yl]-3-methyl-1,2,3,4-tetrahydroisoquinolin-7-yl}pyridin-2-yl)carbonyl]azetidin-3-ol]
28 | 6.96 | CC1Cc2ccc(-c3ccnc(C(=O)N(C)C)c3)cc2CN1c1cc(N2CCN(C)CC2)nc(N)n1 (single isomer, unassigned) [Example 61A, 4-{2-[2-amino-6-(4-methylpiperazin-1-yl)pyrimidin-4-yl]-3-methyl-1,2,3,4-tetrahydroisoquinolin-7-yl}-N,N-dimethylpyridine-2-carboxamide]
29 | 7.19 | CC1Cc2ccc(-c3ccnc(C(=O)N(C)C)c3)cc2CN1c1cc(N2CCN(C)CC2)nc(N)n1 (single isomer, unassigned) [Example 61B, 4-{2-[2-amino-6-(4-methylpiperazin-1-yl)pyrimidin-4-yl]-3-methyl-1,2,3,4-tetrahydroisoquinolin-7-yl}-N,N-dimethylpyridine-2-carboxamide]
